Assay results as given in paper PMC4175417 (Journal of clinical pharmacology, 2013).
Read-outs that look alike come from different tables or passages of the source. Marks after values point to notes of the source that are not given here.

Key:
[1] = In-clinic diastolic blood pressure in mRCC patients of the PK/PD analysis; type: in vivo, human; conditions: maximum post-baseline dBP within the first 8 weeks; 168 mRCC patients
clinical = conditions: human, in vivo
mRCC = conditions: second-line therapy for mRCC; cited from earlier work
[2] = cited from earlier work
Axitinib exposure = type: in vivo; conditions: human, plasma, oral
mRCC patients [3] = experiment: Efficacy in mRCC studies; type: in vivo, human
mRCC patients [4] = conditions: cited from earlier work
[5] = cited from earlier work; remark: listed apart in the source
[6] = corrected serum calcium <10 mg/dL
[7] = corrected serum calcium ≥10 mg/dL
[8] = corrected serum calcium ≥10 vs <10 mg/dL
[9] = hemoglobin >13 g/dL for male, >11.5 for female
[10] = hemoglobin ≤13 g/dL for male, ≤11.5 for female
[11] = per 10 mm Hg increase of dBP, adjusted for prognostic factors
[12] = per 100 hxng/mL increase of AUC, adjusted for prognostic factors
[13] = sorafenib- vs cytokine-refractory

Which “dBP, median (range)” value [1] does the source give for CNC(=O)c1ccccc1Sc1ccc2c(/C=C/c3ccccn3)n[nH]c2c1 [axitinib] here?
Its value is 90 (58–116) ^e mm Hg.

What about the “Effect of food on oral bioavailability” value (Form XLI) of the same compound?
The value was “negligible effect”.

And the “Vp (volume of distribution in peripheral compartment)” value (final model)?
Its value is 393 L.

And the “Age >60-yr effect on CL” value (human, in vivo)?
The value was −0.213.

And the “F with Form XLI” value (human, in vivo)?
Its value is “g F with Form XLI is estimated to be 0.402; calculated as 0.457 × (1 – 0.121). Note that there was no observed food effect with Form XLI”.

What about the “F, fasting with Form IV” value (human, in vivo) of the same compound?
Its value is “f For fasting effect with Form IV, F is estimated to be 0.608; calculated as 0.457 × (1 + 0.33)”.

And the “Fasting effect on ka” value (human, in vivo)?
Its value is 1.97.

And the “Fasting on F, Form IV” value (human, in vivo)?
Its value is 0.330.

What about the “Japanese ethnicity effect on CL” value (human, in vivo) of the same compound?
The value was −0.249.

And the “Q (apparent inter-compartmental clearance)” value (human, in vivo)?
Its value is 4.00 (86.8) ^d L/h.

What about the “Smoking status on CL” value (human, in vivo) of the same compound?
Its value is 1.02.

And the “ka (first-order absorption rate constant): fed” value (human, in vivo)?
The value was 0.482 (77) hour^–1.

What about the “ka higher in the fasted state compared with the fed state” value (human, in vivo) of the same compound?
The value was 197%.

What about the “ka, fasting” value (human, in vivo) of the same compound?
The value was “e For fasting effect, ka is estimated to be 1.43 hour^−1; calculated as 0.482 hour^−1 × (1 + 1.97)”.

What about the “tlag (absorption lag time)” value (human, in vivo) of the same compound?
The value was 0.454 h.

And the “Increase of oral bioavailability in the fasted state compared with the fed state” value (human, in vivo, po)?
The value was 33%.

What about the Vd (clinical) of the same compound?
The Vd was 47.3 L.

And the clearance (clinical)?
The clearance was 243 mL/min.

And the Efficacy versus sorafenib (mRCC)?
The Efficacy versus sorafenib was “superior efficacy over sorafenib”.

And the “Time to peak plasma concentration” value ([2]; oral administration, fed state)?
Its value is 2 to 6 h.

And the “Maximum tolerated dose (MTD)” value ([2]; study 1, patients with solid tumors)?
The value was 5 mg bid.

What about the AUC (Axitinib exposure) of the same compound?
Its AUC is 375 ng·h/mL.

What about the mOS (mRCC patients [3]; AUC <300 hxng/mL) of the same compound?
Its mOS is 15.8 months.

What about the mPFS (mRCC patients [3]; AUC <300 hxng/mL) of the same compound?
Its mPFS is 7.4 months.

And the mOS (mRCC patients [3]; AUC ≥300 hxng/mL)?
The mOS was 37.4 months.

And the mPFS (mRCC patients [3]; AUC ≥300 hxng/mL)?
The mPFS was 13.8 months.

What about the “OS HR (95% CI), multivariate” value (mRCC patients [3]; ECOG PS) of the same compound?
Its value is 2.37 (1.50, 3.72).

And the “PFS HR (95% CI), multivariate” value (mRCC patients [3]; ECOG PS)?
The value was 1.82 (1.17, 2.83).

What about the mOS (mRCC patients [3]; ECOG PS 0) of the same compound?
Its mOS is 41.6 months.

What about the mPFS (mRCC patients [3]; ECOG PS 0) of the same compound?
Its mPFS is 13.7 months.

And the mOS (mRCC patients [3]; ECOG PS 1)?
Its mOS is 10.7 months.

And the mPFS (mRCC patients [3]; ECOG PS 1)?
The mPFS was 7.13 months.

What about the “OS HR (95% CI), univariate” value (mRCC patients [3]; ECOG PS 1 vs 0) of the same compound?
The value was 3.63 (2.40, 5.48).

And the “PFS HR (95% CI), univariate” value (mRCC patients [3]; ECOG PS 1 vs 0)?
Its value is 2.17 (1.46, 3.23).

What about the “OS HR (95% CI), univariate” value (mRCC patients [3]; age, continuous) of the same compound?
Its value is 0.992 (0.972, 1.01).

And the “PFS HR (95% CI), univariate” value (mRCC patients [3]; age, continuous)?
Its value is 1.006 (0.986, 1.026).

What about the mOS (mRCC patients [3]; [6]) of the same compound?
Its mOS is 27.7 months.

And the mPFS (mRCC patients [3]; [6])?
Its mPFS is 11.1 months.

And the mOS (mRCC patients [3]; [7])?
Its mOS is 16.4 months.

And the mPFS (mRCC patients [3]; [7])?
The mPFS was 8.38 months.

What about the “OS HR (95% CI), univariate” value (mRCC patients [3]; [8]) of the same compound?
Its value is 1.74 (1.03, 2.96).

And the “PFS HR (95% CI), univariate” value (mRCC patients [3]; [8])?
Its value is 1.21 (0.688, 2.13).

And the mOS (mRCC patients [3]; cytokine-refractory)?
Its mOS is 30.0 months.

What about the mPFS (mRCC patients [3]; cytokine-refractory) of the same compound?
Its mPFS is 13.0 months.

And the mOS (mRCC patients [3]; dBP <90 mm Hg)?
The mOS was 18.5 months.

What about the mPFS (mRCC patients [3]; dBP <90 mm Hg) of the same compound?
The mPFS was 7.86 months.

And the mOS (mRCC patients [3]; dBP ≥90 mm Hg)?
Its mOS is 29.5 months.

What about the mPFS (mRCC patients [3]; dBP ≥90 mm Hg) of the same compound?
The mPFS was 14.6 months.

What about the mOS (mRCC patients [3]; female) of the same compound?
Its mOS is 19.6 months.

What about the mPFS (mRCC patients [3]; female) of the same compound?
The mPFS was 7.63 months.

And the “OS HR (95% CI), univariate” value (mRCC patients [3]; female vs male)?
Its value is 1.26 (0.799, 1.97).

And the “PFS HR (95% CI), univariate” value (mRCC patients [3]; female vs male)?
Its value is 1.63 (1.09, 2.46).

What about the “Increase in the probability of achieving a partial response” value (mRCC patients [3]; for every 100 hxng/mL increase in AUC, logistic regression) of the same compound?
The value was 1.5 fold.

And the “PFS HR (95% CI), multivariate” value (mRCC patients [3]; gender)?
Its value is 1.72 (1.14, 2.60).

What about the “OS HR (95% CI), multivariate” value (mRCC patients [3]; hemoglobin) of the same compound?
Its value is 0.348 (0.213, 0.567).

And the “PFS HR (95% CI), multivariate” value (mRCC patients [3]; hemoglobin)?
Its value is 0.601 (0.393, 0.921).

And the mOS (mRCC patients [3]; [9])?
Its mOS is 43.3 months.

What about the mPFS (mRCC patients [3]; [9]) of the same compound?
Its mPFS is 14.6 months.

And the mOS (mRCC patients [3]; [10])?
The mOS was 15.9 months.

And the mPFS (mRCC patients [3]; [10])?
The mPFS was 7.69 months.

And the “OS HR (95% CI), univariate” value (mRCC patients [3]; high vs low hemoglobin)?
Its value is 0.282 (0.179, 0.443).

And the “PFS HR (95% CI), univariate” value (mRCC patients [3]; high vs low hemoglobin)?
Its value is 0.537 (0.364, 0.792).

And the mOS (mRCC patients [3]; male)?
Its mOS is 27.7 months.

What about the mPFS (mRCC patients [3]; male) of the same compound?
Its mPFS is 13.0 months.

And the “OS HR (95% CI), multivariate” value (mRCC patients [3]; [11])?
The value was 0.739 (0.586, 0.931).

What about the “PFS HR (95% CI), multivariate” value (mRCC patients [3]; [11]) of the same compound?
Its value is 0.660 (0.519, 0.839).

What about the “OS HR (95% CI), multivariate” value (mRCC patients [3]; [12]) of the same compound?
The value was 0.866 (0.773, 0.968).

And the “PFS HR (95% CI), multivariate” value (mRCC patients [3]; [12])?
The value was 0.909 (0.832, 0.993).

What about the “OS HR (95% CI), multivariate” value (mRCC patients [3]; prior therapy) of the same compound?
The value was 2.12 (1.35, 3.34).

What about the “PFS HR (95% CI), multivariate” value (mRCC patients [3]; prior therapy) of the same compound?
Its value is 1.60 (1.04, 2.47).

What about the “OS HR (95% CI), univariate” value (mRCC patients [3]; [13]) of the same compound?
The value was 2.15 (1.39, 3.34).

And the “PFS HR (95% CI), univariate” value (mRCC patients [3]; [13])?
Its value is 1.55 (1.02, 2.34).

And the mOS (mRCC patients [3]; sorafenib-refractory)?
Its mOS is 15.8 months.

What about the mPFS (mRCC patients [3]; sorafenib-refractory) of the same compound?
Its mPFS is 7.63 months.

What about the “RECIST-based overall response rate” value (mRCC patients [4]; study 2, cytokine-refractory mRCC) of the same compound?
Its value is 44%.

And the “RECIST-based overall response rate” value (mRCC patients [4]; study 4, sorafenib-refractory mRCC)?
The value was 23%.

And the “RECIST-based overall response rate” value (mRCC patients [4]; study 5, Japanese cytokine-refractory mRCC)?
The value was 50%.

What about the “Exposure compared with normal hepatic function” value ([5]; mild hepatic impairment) of the same compound?
The value was “did not alter axitinib exposures”.

And the “Higher exposure compared with normal hepatic function” value ([5]; moderate hepatic impairment)?
The value was 2 fold.
